Laboratory results from ChEMBL document CHEMBL3638480, “Inhibitors” (2013).

Biological target: Glutaminyl-peptide cyclotransferase (Homo sapiens, UniProt Q16769)
Test: Spectrophotometic Assay: Spectrophotometic Assay: This novel assay was used to determine the kinetic parameters for most of the QC substrates. QC activity was analyzed spectrophotometrically using a continuous method, that was derived by adapting a previous discontinuous assay (Bateman, R.C.J. 1989 J Neurosci Methods 30, 23-28).

Chain of Glutaminyl-peptide cyclotransferase (Q16769 whole entry): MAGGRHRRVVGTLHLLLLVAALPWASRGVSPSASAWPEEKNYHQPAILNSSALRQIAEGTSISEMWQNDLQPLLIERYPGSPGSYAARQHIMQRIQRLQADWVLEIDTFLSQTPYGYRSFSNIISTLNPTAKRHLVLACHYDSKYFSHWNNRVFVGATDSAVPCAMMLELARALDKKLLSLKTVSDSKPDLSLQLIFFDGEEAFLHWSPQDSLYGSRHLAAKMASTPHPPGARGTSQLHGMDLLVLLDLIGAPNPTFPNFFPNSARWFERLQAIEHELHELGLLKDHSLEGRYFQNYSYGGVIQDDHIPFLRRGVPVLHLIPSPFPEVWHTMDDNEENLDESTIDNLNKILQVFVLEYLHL

SMILES	IC50 [µM]
O=C1NCC(c2ccc(OCCCN3CCOCC3)cc2)N1c1ccc2nc[nH]c2c1 (stereo not given)	< 10
O=C1NCC(c2ccc(OCCN3CCOCC3)cc2)N1c1ccn2ccnc2c1 (stereo not given)	< 10
COc1ccc(C2CNC(=O)N2c2ccc3nc[nH]c3c2)cc1F (stereo not given)	< 10
CCOc1ccc(C2CNC(=O)N2c2ccc3[nH]cnc3c2)cc1 (stereo not given)	< 10
O=C1NCC(c2ccccc2Cl)N1c1ccc2nc[nH]c2c1 (stereo not given)	< 10
O=C1NCC(c2ccc(C(F)(F)F)cc2F)N1c1ccc2[nH]cnc2c1 (stereo not given)	< 10
COCCCc1ccc(C2CNC(=O)N2c2ccc3[nH]cnc3c2)cc1 (stereo not given)	< 10
O=C1NCC(c2ccc(OC(F)(F)C(F)F)cc2)N1c1ccc2[nH]cnc2c1 (stereo not given)	< 10
O=C1NCC(c2cccc(F)c2)N1c1ccc2nc[nH]c2c1 (stereo not given)	< 10
COc1cccc(C2CNC(=O)N2c2ccc3nc[nH]c3c2)c1 (stereo not given)	< 10
O=C1NCC(c2ccc(N3CCN(c4ccccc4)CC3)cc2)N1c1ccn2ccnc2c1 (stereo not given)	< 10
COc1cc(F)c(C2CNC(=O)N2c2ccn3ccnc3c2)c(F)c1 (stereo not given)	< 10
CCCOc1ccc(C2CN(CCCc3ccccc3)C(=O)N2c2ccc3[nH]cnc3c2)cc1 (stereo not given)	< 10
O=C1NCC(c2ccc(C3CCCCC3)cc2)N1c1ccn2ccnc2c1 (stereo not given)	< 10
O=C1NCC(c2ccc(F)cc2)N1c1ccc2[nH]cnc2c1 (stereo not given)	< 10
O=C1NCC(c2cc(C(F)(F)F)ccc2F)N1c1ccc2[nH]cnc2c1 (stereo not given)	< 10
CCCOc1ccc(C2CCC(=O)N2c2ccc3[nH]cnc3c2)cc1 (stereo not given)	< 10
CCCCCOc1ccc(C2CNC(=O)N2c2ccc3nc[nH]c3c2)cc1 (stereo not given)	< 10
O=C1NCC(c2ccc(O)cc2)N1c1ccc2[nH]cnc2c1 (stereo not given)	< 10
CC(C)Oc1ccc(C2CNC(=O)N2c2ccc3nc[nH]c3c2)cc1 (stereo not given)	< 10
O=C1NCC(c2cccc(Cl)c2Cl)N1c1ccc2nc[nH]c2c1 (stereo not given)	< 10
CCCOc1ccc(C2CNC(=O)N2c2ccc3[nH]cnc3c2)c(F)c1 (stereo not given)	< 10

SMILES	IC50 [µM]
O=C1NCC(c2ccc(N3CCCCC3)cc2)N1c1ccn2ccnc2c1 (stereo not given)	< 10
CCCOc1ccc(C2CN(CCc3ccccc3)C(=O)N2c2ccc3[nH]cnc3c2)cc1 (stereo not given)	< 10
O=C1c2ccccc2C(c2ccc(Cl)cc2)N1c1ccc2[nH]cnc2c1 (stereo not given)	< 10
O=C1NCC(c2c(Cl)cccc2Cl)N1c1ccc2nc[nH]c2c1 (stereo not given)	< 10
O=C1NCC(c2ccc(C3CCC(N4CCOCC4)CC3)cc2)N1c1ccc2[nH]cnc2c1 (stereo not given)	< 10
O=C1NCC(c2ccc(C3CCOCC3)cc2)N1c1ccc2[nH]cnc2c1 (stereo not given)	< 10
COc1cc(C2CNC(=O)N2c2ccn3ccnc3c2)cc2c1OCO2 (stereo not given)	< 10
O=C1CCC(c2ccc(C3CNC(=O)N3c3ccc4[nH]cnc4c3)cc2)CC1 (stereo not given)	< 10
O=C1NCC(c2ccc(-c3ccccc3)c(F)c2)N1c1ccc2[nH]cnc2c1 (stereo not given)	< 10
COc1cc(F)c(C2CNC(=O)N2c2ccc3nc[nH]c3c2)c(F)c1 (stereo not given)	< 10
O=C1NCC(c2ccccc2OCCN2CCOCC2)N1c1ccc2nc[nH]c2c1 (stereo not given)	< 10
COCCOc1ccc(C2CNC(=O)N2c2ccc3[nH]cnc3c2)cc1 (stereo not given)	< 10
CCCOc1ccc([C@H]2[C@H](c3ccccc3)OC(=O)N2c2ccc3[nH]cnc3c2)cc1	< 10
O=C1NCC(c2cccc(N3CCCCC3)c2)N1c1ccn2ccnc2c1 (stereo not given)	< 10
O=C1NCC(c2ccc(N3CCCC3)cc2)N1c1ccn2ccnc2c1 (stereo not given)	< 10
O=C1NCC(c2c(F)cccc2F)N1c1ccc2[nH]cnc2c1 (stereo not given)	< 10
COc1ccccc1C1CNC(=O)N1c1ccc2[nH]cnc2c1 (stereo not given)	< 10
O=C1NCC(C2CCC(c3ccccc3)CC2)N1c1ccc2nc[nH]c2c1 (stereo not given)	< 10
COc1ccc(C2CN(N)C(=O)N2c2ccc3[nH]cnc3c2)cc1 (stereo not given)	< 10
CC(C)Oc1ccc(C[C@H]2COC(=O)N2c2ccc3[nH]cnc3c2)cc1	< 10
COc1cc(F)c(C2COC(=O)N2c2ccc3[nH]cnc3c2)c(F)c1 (stereo not given)	< 10
COc1ccc(C2CCC(=O)N2c2ccc3[nH]cnc3c2)cc1 (stereo not given)	< 10

SMILES	IC50 [µM]
O=C1NCC(c2ccc(-c3ccccc3)c(F)c2)N1c1ccn2ccnc2c1 (stereo not given)	< 10
CC(c1ccccc1)C1COC(=O)N1c1ccc2[nH]cnc2c1 (stereo not given)	< 10
CC1(C)OC(=O)N(c2ccc3nc[nH]c3c2)[C@H]1c1ccccc1	< 10
CCCOc1ccc(C2CNC(=O)N2c2ccc3[nH]cnc3c2)cc1F (stereo not given)	< 10
O=C1NCC(c2cccc(-c3ccccc3)c2)N1c1ccc2[nH]cnc2c1 (stereo not given)	< 10
O=C1NCC(c2ccc3c(c2)OC(F)(F)O3)N1c1ccc2[nH]cnc2c1 (stereo not given)	< 10
O=C1OCC(c2ccc(OC3CCCCC3)cc2)N1c1ccc2[nH]cnc2c1 (stereo not given)	< 10
O=C1NCC(c2ccc(OCCN3CCOCC3)cc2)N1c1ccc2nc[nH]c2c1 (stereo not given)	< 10
O=C1c2ccccc2[C@H](c2ccc(Cl)cc2)N1c1ccc2[nH]cnc2c1	< 10
O=C1OC[C@H](CCc2ccccc2)N1c1ccc2[nH]cnc2c1	< 10
O=C1NCC(c2ccc3c(c2)OCCO3)N1c1ccc2[nH]cnc2c1 (stereo not given)	< 10
C[C@@H]1OC(=O)N(c2ccc3nc[nH]c3c2)[C@H]1c1ccccc1	< 10
O=C1NCC(C2CCN(c3ccccc3)CC2)N1c1ccc2nc[nH]c2c1 (stereo not given)	< 10
O=C1NCC(c2ccc(C(F)(F)F)c(F)c2)N1c1ccc2nc[nH]c2c1 (stereo not given)	< 10
O=C1OC[C@H](CC2CCCCC2)N1c1ccc2[nH]cnc2c1	< 10
O=C1CCC(c2ccc3c(c2)OCCO3)N1c1ccc2[nH]cnc2c1 (stereo not given)	< 10
O=C1NCC(c2ccc(C3CCCCC3)cc2)N1c1ccc2[nH]cnc2c1 (stereo not given)	< 10
O=C1NCC(c2ccc(-c3cccc(Cl)c3)cc2)N1c1ccc2[nH]cnc2c1 (stereo not given)	< 10
COc1cc(C2CNC(=O)N2c2ccc3[nH]cnc3c2)ccc1F (stereo not given)	< 10
CCCOc1ccc(C[C@H]2COC(=O)N2c2ccc3[nH]cnc3c2)cc1	< 10
O=C1NCC(c2ccc(Cl)c(Cl)c2)N1c1ccc2nc[nH]c2c1 (stereo not given)	< 10
O=C1NCC(c2cc(F)cc(C(F)(F)F)c2)N1c1ccc2[nH]cnc2c1 (stereo not given)	< 10

SMILES	IC50 [µM]
CN(C)CCCc1ccc([C@@H]2COC(=O)N2c2ccc3[nH]cnc3c2)cc1	< 10
O=C1NCC(c2ccc(N3CCOCC3)cc2)N1c1ccc2[nH]cnc2c1 (stereo not given)	< 10
O=C1NCC(c2ccc(N3CCN(c4ccccc4)CC3)cc2)N1c1ccc2nc[nH]c2c1 (stereo not given)	< 10
O=C1NCC(c2ccc(N3CCOCC3)c(Cl)c2)N1c1ccc2nc[nH]c2c1 (stereo not given)	< 10
O=C1NCC(c2c(F)cccc2F)N1c1ccn2ccnc2c1 (stereo not given)	< 10
O=C1NCC(c2ccccc2F)N1c1ccc2[nH]cnc2c1 (stereo not given)	< 10
CCCOc1ccc(C2CN(Cc3ccc4ccccc4c3)C(=O)N2c2ccc3[nH]cnc3c2)cc1 (stereo not given)	< 10
O=C1NCC(c2ccc(-c3ccc(Cl)c(Cl)c3)cc2)N1c1ccc2nc[nH]c2c1 (stereo not given)	< 10
CCCCOc1ccc(C2CNC(=O)N2c2ccc3nc[nH]c3c2)cc1 (stereo not given)	< 10
CCCOc1ccc(C2CN(Cc3ccccc3)C(=O)N2c2ccc3[nH]cnc3c2)cc1 (stereo not given)	< 10
O=C1NCC(c2cccc(Cl)c2)N1c1ccc2nc[nH]c2c1 (stereo not given)	< 10
O=C1NCC(c2cccc(-c3cccc(Cl)c3)c2)N1c1ccc2[nH]cnc2c1 (stereo not given)	< 10
O=C1NCC(c2ccc(Cl)cc2)N1c1ccc2[nH]cnc2c1 (stereo not given)	< 10
O=C1NCC(c2ccc(OC3CCCCC3)cc2)N1c1ccc2[nH]cnc2c1 (stereo not given)	< 10
COc1cc(C2CNC(=O)N2c2ccc3[nH]cnc3c2)cc2c1OCO2 (stereo not given)	< 10
O=C1OC[C@H](c2ccc(OCCN3CCOCC3)cc2)N1c1ccc2[nH]cnc2c1	< 10
O=C1OC[C@H](c2cc(F)cc(C(F)(F)F)c2)N1c1ccc2nc[nH]c2c1	< 10
CN(C)CCOc1ccc([C@H]2COC(=O)N2c2ccc3[nH]cnc3c2)cc1	< 10
O=C1OC[C@H](C2CCCCC2)N1c1ccc2[nH]cnc2c1	< 10
O=C1OC[C@H](c2ccc3c(c2)OCO3)N1c1ccc2nc[nH]c2c1	< 10
COc1ccc([C@H]2[C@@H](C)NC(=O)N2c2ccc3nc[nH]c3c2)cc1	< 10
O=C1OC[C@H](c2cccc(F)c2)N1c1ccc2[nH]cnc2c1	< 10

SMILES	IC50 [µM]
CN1CCN(c2ccc([C@H]3COC(=O)N3c3ccc4nc[nH]c4c3)cc2)CC1	< 10
O=C1OC[C@H](c2cccc(F)c2F)N1c1ccc2nc[nH]c2c1	< 10
CCCOc1ccc([C@H]2COC(=O)N2c2cc(C)c3[nH]cnc3c2)cc1	< 10
O=C1NC[C@H](c2ccc(C3CCC(F)(F)CC3)cc2)N1c1ccc2[nH]cnc2c1	< 10
O=C1OC[C@H](c2ccc3c(c2)OCCO3)N1c1ccc2nc[nH]c2c1	< 10
CN(C)CCOc1ccc([C@H]2CNC(=O)N2c2ccc3[nH]cnc3c2)cc1	< 10
CCN(CC)c1ccc([C@H]2CNC(=O)N2c2ccc3[nH]cnc3c2)cc1	< 10
O=C1OC[C@H](c2cccc(-c3cccc(Cl)c3)c2)N1c1ccc2nc[nH]c2c1	< 10
O=C1OC[C@H](c2ccc(OCCN3CCNCC3)cc2)N1c1ccc2[nH]cnc2c1	< 10
O=C1OC[C@H](c2cccc(Cl)c2)N1c1ccc2nc[nH]c2c1	< 10
O=C1OC[C@H](C2CCN(c3ccccc3)CC2)N1c1ccc2[nH]cnc2c1	< 10
O=C1OC[C@H](c2ccc(-c3cccc(Cl)c3)cc2)N1c1ccc2nc[nH]c2c1	< 10
O=C1OC[C@H](c2ccccc2)N1c1ccc2[nH]cnc2c1	< 10
CN1CCC(c2ccc([C@H]3CNC(=O)N3c3ccc4[nH]cnc4c3)cc2)CC1	< 10
COCCCc1ccc([C@H]2COC(=O)N2c2ccc3[nH]cnc3c2)cc1	< 10
Cc1nc2ccc(N3C(=O)OC[C@@H]3c3ccccc3)cc2[nH]1	< 10
O=C1OC[C@H](c2ccc(Cl)cc2)N1c1ccc2nc[nH]c2c1	< 10
Cc1cc(N2C(=O)OC[C@@H]2c2ccccc2)cc2nc[nH]c12	< 10
O=C1OC[C@H](C2CCC(c3ccccc3)CC2)N1c1ccc2[nH]cnc2c1 (stereo not given in full)	< 10
O=C1OC[C@H](c2ccccc2)N1c1cc(F)c2[nH]cnc2c1	< 10
O=C1OC[C@H](c2cccc(N3CCN(c4ccccc4)CC3)c2)N1c1ccc2nc[nH]c2c1	< 10
COCCOc1ccc([C@H]2COC(=O)N2c2ccc3[nH]cnc3c2)cc1	< 10
